Article PMC10687071 (The Journal of Biological Chemistry, 2023)

Assays:
[1] = biological target: T1, ΔPAS mutant EAG1 channels (deletion of PAS domain residues 2 to 130) (Mus musculus, UniProt Q60603); assay: TEVC recording, imipramine inhibition, ΔPAS mutant; format: cell-based; conditions: ΔPAS mutant EAG1 channel, +50 mV
T1 construct: expressed in transfected cells; host or cells: Xenopus laevis oocytes injected with cRNA
T1 sequence (Q60603 with tags, fused parts or gaps): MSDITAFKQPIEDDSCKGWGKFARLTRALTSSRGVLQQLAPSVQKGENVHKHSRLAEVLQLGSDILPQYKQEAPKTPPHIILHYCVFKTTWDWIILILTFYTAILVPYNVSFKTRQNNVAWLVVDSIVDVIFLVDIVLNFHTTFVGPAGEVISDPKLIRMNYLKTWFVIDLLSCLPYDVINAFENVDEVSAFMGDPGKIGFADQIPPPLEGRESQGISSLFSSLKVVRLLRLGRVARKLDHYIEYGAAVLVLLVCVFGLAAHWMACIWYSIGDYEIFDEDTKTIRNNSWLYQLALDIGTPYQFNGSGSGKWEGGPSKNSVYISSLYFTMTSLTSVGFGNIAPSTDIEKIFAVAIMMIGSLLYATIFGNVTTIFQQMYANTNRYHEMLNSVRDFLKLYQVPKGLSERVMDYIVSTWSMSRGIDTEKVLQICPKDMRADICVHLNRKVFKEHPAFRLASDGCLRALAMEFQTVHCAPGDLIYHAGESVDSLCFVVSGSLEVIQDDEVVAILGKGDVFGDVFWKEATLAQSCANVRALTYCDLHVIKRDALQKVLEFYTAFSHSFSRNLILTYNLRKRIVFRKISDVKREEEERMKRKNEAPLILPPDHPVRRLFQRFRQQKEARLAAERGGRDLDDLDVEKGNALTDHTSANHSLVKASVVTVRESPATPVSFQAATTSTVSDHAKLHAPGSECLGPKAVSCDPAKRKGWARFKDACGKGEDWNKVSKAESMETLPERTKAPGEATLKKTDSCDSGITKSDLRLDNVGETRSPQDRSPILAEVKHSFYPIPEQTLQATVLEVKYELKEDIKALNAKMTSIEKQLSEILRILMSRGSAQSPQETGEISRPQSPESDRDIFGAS
Text: (§1) The cDNA encoding wild-type (WT) mouse EAG1 channels in pGH19 vector was kindly provided by G. Robertson (University of Wisconsin-Madison, Madison, WI). The mutant ΔPAS EAG1 channel in pGH19 with the deletion of the PAS domain residues 2 to 130 was generated by Bio Basic Inc and verified by DNA sequencing (Genewiz). Mutant EAG1 channels with single amino acid substitutions were generated by Genewiz and verified by DNA sequencing. cRNA was transcribed using the T7 mMessage mMachine kit (Thermo Fisher Scientific). Defolliculated Xenopus laevis oocytes were purchased from Ecocyte Bioscience or Xenopus1 and injected with the cRNA using a Nanoinject II oocyte injector (Drummond).
(§2) For EAG1 current recordings, oocytes were placed into a handmade chamber containing a bath solution for the current recording. The currents were recorded using a TEVC technique with OC-725C amplifier (Warner Instruments) and pClamp11 software (Molecular Devices). The signals were digitized using Digidata 1550 (Molecular Devices). Patch pipettes were pulled from borosilicate glass and had resistances of 0.7 to 1.5 MΩ. The recording (bath) solution contained 96 mM NaCl, 4 mM KCl, 0.1 mM CaCl2, 1.8 mM MgCl2, and 5 mM HEPES, pH 7.5. The pipette solution contained 3 M KCl. […]

[2] = biological target: T2, Y71F mutant EAG1 channels (Mus musculus, UniProt Q60603, Y71F); assay: TEVC recording, imipramine inhibition, Y71F mutant; format: cell-based; conditions: Y71F mutant EAG1 channel, +50 mV
T2 construct: expressed in transfected cells; host or cells: Xenopus laevis oocytes injected with cRNA
T2 sequence (Q60603 1-989 Y71F): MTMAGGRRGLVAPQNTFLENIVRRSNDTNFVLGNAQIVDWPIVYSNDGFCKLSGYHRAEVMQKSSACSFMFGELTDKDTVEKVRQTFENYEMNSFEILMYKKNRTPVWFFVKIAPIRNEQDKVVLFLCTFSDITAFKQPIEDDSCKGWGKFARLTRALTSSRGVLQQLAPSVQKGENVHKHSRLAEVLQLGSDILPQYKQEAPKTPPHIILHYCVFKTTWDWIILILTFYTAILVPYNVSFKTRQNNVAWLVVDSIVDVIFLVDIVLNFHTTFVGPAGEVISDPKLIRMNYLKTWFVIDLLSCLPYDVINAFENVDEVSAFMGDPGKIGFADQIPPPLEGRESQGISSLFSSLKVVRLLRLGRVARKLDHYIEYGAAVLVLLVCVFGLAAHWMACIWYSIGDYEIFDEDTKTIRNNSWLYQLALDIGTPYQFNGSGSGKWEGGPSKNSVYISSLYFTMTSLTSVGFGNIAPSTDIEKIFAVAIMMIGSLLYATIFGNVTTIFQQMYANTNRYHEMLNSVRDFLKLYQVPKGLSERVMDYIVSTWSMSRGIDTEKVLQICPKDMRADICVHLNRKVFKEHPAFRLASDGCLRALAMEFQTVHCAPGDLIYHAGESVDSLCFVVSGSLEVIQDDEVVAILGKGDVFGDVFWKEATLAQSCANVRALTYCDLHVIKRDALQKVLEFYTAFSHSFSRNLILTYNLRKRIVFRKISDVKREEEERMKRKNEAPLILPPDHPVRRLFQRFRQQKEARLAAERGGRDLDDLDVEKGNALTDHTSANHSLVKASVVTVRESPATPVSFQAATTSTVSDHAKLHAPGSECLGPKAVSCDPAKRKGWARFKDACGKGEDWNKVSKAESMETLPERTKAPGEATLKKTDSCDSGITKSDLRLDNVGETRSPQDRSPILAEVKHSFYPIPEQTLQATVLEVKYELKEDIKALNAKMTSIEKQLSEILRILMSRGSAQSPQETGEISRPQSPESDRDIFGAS
Text: as §1, §2

CN(C)CCCN1c2ccccc2CCc2ccccc21 [imipramine]
IC50 [1]: 109 ± 12.6 µM | IC50 [2]: 58 ± 3.7 µM
